Key:
hMAT2A [1] = biological target: T1, hMAT2A (Homo sapiens, UniProt P31153); test: Phosphate Sensor Fluorescence Assay (MAT2A enzyme inhibition); format: biochemical; set-up: Human MAT2A: Cepter, amino acids 1-395; purchased Cepter clone ID 329, lot 00023-123; clone ID 334, lot 00023-148; conditions: L-methionine and ATP 500 uM, 1 hour
Procedure: (§1) The ability of the compound of present disclosure to inhibit MAT2A enzyme was determined using the Malachite Green or Phosphate Sensor Fluorescence Assay described below.
Biologic Example B. Phosphate Sensor Fluorescence Assay
MAT2A enzyme is incubated with a test compound in DMSO or DMSO and its substrates (L-methionine and ATP) in a microtiter plate. The enzymatic reaction is stopped by the addition of Working Phosphate Sensor Mixture. The plate is analyzed for fluorescence at 450 nm. The high control (DMSO with enzyme and its substrates) gives high fluorescence which represents no inhibition of enzymatic activity while the low control (DMSO with MAT2A substrates and no enzyme) gives low fluorescence which represents full inhibition of enzymatic activity.
Human MAT2A: Cepter, amino acids 1-395
Assay Buffer: 50 mM Tris, pH 7.5/50 mM KCl/10 mM MgCl2/0.01% Brij-35/1 mM DTT/0.1% BGG/40 nM PNP/6 uM 7-MEG
MAT2A: 10 nM for Cepter clone ID 329, lot 00023-123 before the addition of Working Phosphate Sensor Mixture • 5 nM for Cepter clone ID 334, lot 00023-148 before the addition of Working Phosphate Sensor Mixture
L-methionine: 500 uM before the addition of Working Phosphate Sensor Mixture
ATP: 500 uM before the addition of Working Phosphate Sensor Mixture
For the assay, a mixture of 1 mM L-methionine/1 mM ATP (2× final pre-stopped concentration) in assay buffer; MAT2A (2× final pre-stopped concentration) in Assay Buffer and Working Phosphate Sensor Mixture (1.5 uM Phosphate Sensor/30 mM EDTA in Assay Buffer, which is 3× final concentrations) were prepared. Test compounds or DMSO were added to the appropriate well suing D300e digital dispenser. 5 μl/well of Assay Buffer was added to the wells corresponding to the negative control and 5 μl/well of MAT2A was added to all the wells except for those corresponding to the negative control. After incubating the plate at room temperature for 15 minutes, 5 μl/well of the 1 mM L-methionine/1 mM ATP mixture was added to all wells. The plate was centrifuged at 1000 rpm for 1 minute and then incubated at room temperature for 1 hour. 5 μl of the Working Phosphate Sensor Mixture was added to all wells and the plate was centrifuged at 1000 rpm for 1 minute. The plate was read for fluorescence at 450 nm after exciting at 430 nm.
Percent inhibition was calculated in Chemical and Biological Information System (CBIS), (ChemInnovation Software Inc.). Curves were fitted by CBIS as % inhibition vs. log [compound concentration] using a 4-parameter inhibition model.
Fit=(A+((B−A)/(1+((C/x)^D))))

hMAT2A [2] = biological target: T1, hMAT2A; test: Malachite Green Assay (MAT2A enzyme inhibition); format: biochemical; set-up: amino acids 1-395; purchased Cepter; conditions: hMAT2A 50 nM, substrates 500 uM each, 1 hour
Procedure: as §1
Biologic Example A. Malachite Green Assay
Enzyme: MAT2A • hMAT2A: 50 nM, Cepter, 10 mg/mL (234 μM), amino acids 1-395 • Substrates: 500 uM each • Reaction time: 1 hour
L-methionine Substrate: Alfa Aesar catalog #J61904
ATP Substrate: Alfa Aesar cat #J60336
Malachite Green Detection Reagent: Millipore Sigma catalog #MAK307-1KT
Assay buffer: 50 mM Tris, pH 7.5/50 mM KCl/10 mM MgCl2/0.01% Brij-35/1 mM DTT/0.1% BGG
0% inhibition control: DMSO
100% inhibition control: No enzyme
5 μL of 3× final concentration test compounds in DMSO or DMSO were transferred to the appropriate wells of a microtiter plate and the plate was centrifuged at 1000 rpm for 1 minute. 5 μL of 3× final concentration MAT2A enzyme in assay buffer or assay buffer alone was transferred to the appropriate wells and the plate was centrifuged at 1000 rpm for 1 minute. The plate was incubated at room temperature for 15 minutes and then 5 μL of 3× the L-methionine and ATP substrate mixture in assay buffer was transferred to all the test wells. The plate was centrifuged at 1000 rpm for 1 minute and then incubated at room temperature for 1 hour. 5 μL of malachite green detection reagent was added to all the test wells and the plate was centrifuged at 1000 rpm for 1 minute and then incubated at room temperature for 30 minutes. The plate was read for absorbance at 620 nm on a plate reader (e.g., Infinite M1000). The high control (DMSO) with high absorbance represents no inhibition of enzymatic reaction while the low control (no enzyme) with low absorbance represents full inhibition of enzymatic reaction.

T1 sequence (P31153 whole entry, the tested form may be a part): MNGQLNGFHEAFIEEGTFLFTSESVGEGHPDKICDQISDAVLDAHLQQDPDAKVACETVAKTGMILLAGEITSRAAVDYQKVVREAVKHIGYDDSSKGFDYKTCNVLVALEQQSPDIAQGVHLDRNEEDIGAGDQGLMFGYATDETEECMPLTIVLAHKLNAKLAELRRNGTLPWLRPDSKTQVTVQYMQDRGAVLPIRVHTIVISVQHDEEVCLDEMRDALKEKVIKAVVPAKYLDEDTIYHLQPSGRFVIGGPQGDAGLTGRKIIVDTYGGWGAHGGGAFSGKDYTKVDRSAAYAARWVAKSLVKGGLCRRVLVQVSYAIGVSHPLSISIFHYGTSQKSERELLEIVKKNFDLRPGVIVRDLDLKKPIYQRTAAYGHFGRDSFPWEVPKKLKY

Row | Compound | IC50 (hMAT2A [1]; class symbols) | IC50 (hMAT2A [2]; class symbols) | IC50 (hMAT2A [2]; numeric bound) | IC50 (hMAT2A [1]; numeric bound)
1 | Cc1ccc2[nH]c(=O)nc(-c3ccccc3)c2c1 [1.014, 6-methyl-4-phenylquinazolin-2-ol] | 0.5 to 1 µM |  |  | 
2 | Oc1nc(-c2cccnc2)c2cc(Br)ccc2n1 [1.017, 6-bromo-4-(pyridin-3-yl)quinazolin-2-ol] | 1 to 10 µM |  |  | 
3 | Cc1ccc2nc(O)nc(-c3ccccc3)c2n1 [1.018, 6-methyl-4-phenylpyrido[3,2-d]pyrimidin-2-ol] | 1 to 10 µM |  |  | 
4 | Cc1ncccc1-c1nc(O)nc2ccc(Br)cc12 [1.020, 6-bromo-4-(2-methylpyridin-3-yl)quinazolin-2-ol] | 0.01 to 0.2 µM |  |  | 
5 | Cc1ccccc1-c1nc(O)nc2ccc(C3CC3)cc12 [1.016, 6-cyclopropyl-4-(o-tolyl)quinazolin-2-ol] | 0.01 to 0.2 µM |  |  | 
6 | O=c1nc(-c2ccccc2)c2cc(Br)ccc2[nH]1 [1.013, 6-bromo-4-phenylquinazolin-2-ol] | 0.01 to 0.2 µM | 0.01 to 0.2 µM |  | 
7 | Oc1nc(-c2cccnc2C(F)(F)F)c2cc(Br)ccc2n1 [1.021, 6-bromo-4-(2-(trifluoromethyl)pyridin-3-yl)quinazolin-2-ol] | 1 to 10 µM |  |  | 
8 | Clc1ccc2nc(Cl)nc(-c3ccccc3)c2c1 [1.002, 2,6-dichloro-4-phenylquinazoline] |  |  | > 10 µM | > 10 µM
9 | COC(=O)Cc1nc(-c2ccccc2)c2cc(Cl)ccc2n1 [1.012, methyl 2-(6-chloro-4-phenylquinazolin-2-yl)acetate] |  |  | > 10 µM | > 10 µM
10 | N#CCc1nc(-c2ccccc2)c2cc(Cl)ccc2n1 [1.010, 2-(6-chloro-4-phenylquinazolin-2-yl)acetonitrile] |  |  | > 10 µM | > 10 µM
11 | CC(C)(C)OC(=O)N1CC(Oc2nc(-c3ccccc3)c3cc(Cl)ccc3n2)C1 [1.004, tert-butyl 3-((6-chloro-4-phenylquinazolin-2-yl)oxy)azetidine-1-carboxylate] |  |  | > 10 µM | > 10 µM
12 | OCc1nc(-c2ccccc2)c2cc(Cl)ccc2n1 [1.009] |  |  | > 10 µM | > 10 µM
13 | O=c1nc(-c2ccccc2)c2cc(Cl)ccc2[nH]1 [1.001, 6-chloro-4-phenylquinazolin-2-ol] | 0.01 to 0.2 µM | 0.01 to 0.2 µM |  | 
14 | N#Cc1nc(-c2ccccc2)c2cc(Cl)ccc2n1 [1.005, 6-chloro-4-phenylquinazoline-2-carbonitrile] |  |  | > 10 µM | > 10 µM
15 | NC(=O)Cc1nc(-c2ccccc2)c2cc(Cl)ccc2n1 [1.011, 2-(6-chloro-4-phenylquinazolin-2-yl)acetamide] |  |  | > 10 µM | > 10 µM
16 | Oc1nc(-c2ccccc2)c2cc(C(F)(F)F)ccc2n1 [1.015, 4-phenyl-6-(trifluoromethyl)quinazolin-2-ol] | 0.01 to 0.2 µM |  |  | 
17 | COc1cc(C2CC2)cc2c(-c3ccccc3)nc(O)nc12 [1.019, 6-cyclopropyl-8-methoxy-4-phenylquinazolin-2-ol] | 0.01 to 0.2 µM |  |  | 
18 | Oc1nc(-c2cccnc2Cl)c2cc(Br)ccc2n1 [1.003, 6-bromo-4-(2-chloropyridin-3-yl)quinazolin-2-ol] | 0.2 to 0.5 µM |  |  | 
19 | O=C(O)c1nc(-c2ccccc2)c2cc(Cl)ccc2n1 [1.006, 6-chloro-4-phenylquinazoline-2-carboxylic acid] |  |  |  | > 10 µM
20 | CNC(=O)c1nc(-c2ccccc2)c2cc(Cl)ccc2n1 [1.008, 6-chloro-N-methyl-4-phenylquinazoline-2-carboxamide] |  |  | > 10 µM | > 10 µM

— patent US20230257359A1, “4-ARYLQUINAZOLINE DERIVATIVES AS METHIONINE ADENOSYLTRANSFERASE 2A INHIBITORS” (IDEAYA BIOSCIENCES, INC., priority 2020, published 2023)
